Measurements: patent US20250213593A1, “Use of Derivatives based on Sarsasapogenin Structure and Pharmaceutical Compositions thereof” (BEIJING PHYTOVENT PHARMACEUTICAL TECHNOLOGY CO., LTD., priority 2022, published 2025)

Columns and labels:
[1] = test system: primary cultured neurons in rats (cerebral cortex); assay: Oxygen glucose deprivation (OGD) injury of primary cultured rat neurons; format: cell-based
Excerpt: Experimental and analytical method: rats, 15 days pregnant, were ordered, brains of fetal rats (E15-16) were dissected, and neurons in the cerebral cortex were subjected to primary culture in a neuronal medium for 14 days (DIV 14) using 48-well plates, followed by an OGD experiment. During the OGD experiment, a neuronal culture solution was replaced by a glucose- and oxygen-free culture solution (95% N2/5% CO2 balance), and the neurons were subjected to OGD treatment in an OGD chamber. Then, the oxygen- and glucose-free culture medium was replaced by a normal neuronal culture solution, which was then cultured in a 95% Air/5% CO2 incubator for 24 h for neuronal activity analysis. By staining with Hoechst 33342 and Propidium iodide, a high-content fluorescence microscope was used for photographing, wherein 20 random non-overlapping visual fields were photographed per duplicate well, and the total number of neurons and the number of dead neurons were counted by software (Thermo Scientific™, HCS Studio Cell Analysis Software). […]

[2] = test system: C57BL/6 mouse MCAO damage model; assay: Mice middle cerebral artery occlusion (MCAO) damage model; format: in vivo; details: 24 h after surgery, vs MCAO model group
Protocol: Animal grouping and treatment: according to body weight on Day 1, the animals were randomly divided into a total of 8 groups (N=5), one group was treated every day, and 3 animals were selected in each group for measuring cerebral blood flows.
If the hind paws of the mice had no response when clamped with dissecting forceps, they were transferred to an anesthesia mask, and the isoflurane concentration would be increased to 1.5%. A thermostat and an anal temperature probe were used to maintain intraoperative body temperatures of the mice near 37° C. […]
Measurement of cerebral blood flow: the head of each mouse was fixed under a brain stereotaxic instrument, the head hair of the mouse was shaved, and an incision was made in the middle. […] Optical fibers of a laser Doppler flow meter were fixed with glue at coordinates of Bregma AP 1.0 mm and ML 5.0 mm, and the blood flow changes during MCA surgery were recorded. […]
• Body weight: the body weights of the mice on the day before surgery and 24 h after surgery were recorded. • Neurological function scoring: Longa behavioral scoring was performed at 2 h and 24 h after surgery. […]
Each mouse was tested for forelimb grip 24 h before surgery and 24 h after surgery. […] The grip peaks were recorded, repeatedly measured for three times, and averaged. […]

[3] = test system: OCI-LY3 (human diffuse large B-cell lymphoma cells); assay: Cell proliferation assay, OCI-LY3; format: cell-based
Protocol: (§1) • Experimental and analytical method: cells were inoculated into a 96-well cell culture plate with a lid at a maximum concentration of 10 μM for a test compound, and diluted in three folds to a series of test concentrations, and cells were incubated at 37° C., 5% CO2 for 72 h. The concentration of DMSO was 0.5%, 100 μl of medium was taken from each well. 100 μl of reagent (Celltitute Glo Assay Kit) was added to each well, and a flat plate was shaken on a plate shaker (protected from light) for 2 min. A culture plate was incubated (protected from light) at room temperature for 30 min. Chemiluminescence values were recorded by a multi-plate plate reader, and the experimental results were as follows:
(§2) U937 (histiocytic lymphoma cells), OCI-LY3 (human diffuse large B-cell lymphoma cells), U2932 (human diffuse large B-cell lymphoma cells), and HT cells (human mixed lymphoma cells) were analyzed in the table for experimental analysis of cell proliferation.

[4] = test system: U2932 (human diffuse large B-cell lymphoma cells); assay: Cell proliferation assay, U2932; format: cell-based; details: U2932, 72 h
Protocol: as §1, §2

[5] = test system: HT cells (human mixed lymphoma cells); assay: Cell proliferation assay, HT; format: cell-based
Protocol: as §1, §2

[6] = test system: transgenic AD mice (C57BL/6J background); assay: Light/dark box test of AD mice; format: in vivo, mouse; details: 6 months after administration
Excerpt: The principle of the light/dark box test is: the mice have a natural tendency to darkness; and after the mice was put into a light box, the mice would spontaneously enter a connected dark box. However, in this experiment, the dark box was equipped with an electrical stimulation mechanism, and the mice would be shocked when they entered the dark box.

[7] = test system: C57BL/6 mice modeled with MPTP; assay: PD mouse model (MPTP); format: in vivo; details: 80 mpk, 15 days; vs model group, T-test
Protocol: • Experimental and analytical method: mice of C57BL/6 strain were used in this experiment, which were divided into 5 groups, including a normal control group (no injection of MPTP), a model group (modeling with MPTP), and treatment groups of three small molecules (Embodiment 13B, Embodiment 25A, and Embodiment 25B). The drug was administered at the same time as modeling was made. The modeling lasted for 5 days, followed by 30 mpk intraperitoneal injection till lasting for 15 days, and lasted for 15 days at 80 mpk. At the endpoint, the brain was soaked and fixed in PFA after cardiac perfusion, and transferred to sucrose dehydration after complete fixation, and OCT embedding and sectioning were used for TH staining after complete dehydration. The detection indicator was the number of TH-positive cells in the substantia nigra. The more positive cells, the better the protection effect of small molecules against MPTP damage. • Results: there were 12 mice in each group, and the statistical results were shown in FIG. 50, T-test, **: p<0.01, #: p<0.05.

[8] = test system: Raji-Luc hematologic tumor cells in NOD-Scid immunodeficient mice; assay: NOD-Scid mice inoculated with hematologic tumor cells Raji-Luc; details: 100 mpk by gavage once a day

O=C1NCCc2c(OCCCCN3CCCCC3)cccc21 [DPQ]
protective effect on neuronal damages [1]: significant protective effect | proportion of dead cells ([1]; without OGD 10.32%, DMSO negative control 52.31%): 22.22%

CC1=NN(c2ccccc2)C(=O)C1 [Edaravone]
forelimb grip strength ([2]; Edaravone 10 mg/kg IP, NO. 2 60 mg/kg PO, NO. 3-6 80 mg/kg PO): significant difference | volume of encephaledema (TTC staining) ([2]; doses as Table 6): significant difference

C[C@H]1CC[C@@]2(OC1)O[C@H]1C[C@H]3[C@@H]4CC[C@@H]5C[C@@H](NC(=O)CC(=O)N6CCN(CCN(C)C)CC6)CC[C@]5(C)C4CC[C@]3(C)[C@H]1[C@@H]2C (some centres unmarked) [Embodiment 13A]
IC50 ([3]; Homo sapiens, OCI-Ly3, 72 h): 1780 nM | inhibitory effect on the proliferation of OCI-LY3 cell line (comparison in words) ([3]; among compounds of Table 13): best inhibitory effect | IC50 [4]: 430 nM | IC50 ([5]; Homo sapiens, HT, 72 h): 1510 nM | inhibitory effect on the proliferation of HT cells (comparison in words) ([5]; among compounds of Table 13): best inhibitory effect

C[C@H]1CC[C@@]2(OC1)O[C@H]1C[C@H]3[C@@H]4CC[C@@H]5CC(NC(=O)CC(=O)N6CC(N7CCOCC7)C6)CC[C@]5(C)C4CC[C@]3(C)[C@H]1[C@@H]2C (some centres unmarked) [Embodiment 23]
memory on electric shock (latency before entering the dark box) [6]: could effectively enhance the memory

CCN1CCN(C2CCN(C(=O)CC(=O)N[C@@H]3CC[C@]4(C)C5CC[C@]6(C)[C@@H]7[C@H](C[C@H]6[C@@H]5CC[C@@H]4C3)O[C@]3(CC[C@H](C)CO3)[C@H]7C)CC2)CC1 (some centres unmarked) [Embodiment 25B]
number of TH-positive cells in the substantia nigra [7]: only the Embodiment 13B group of three small modules had statistically significant differences | tumor killing effect (in-vivo fluorescence intensity) [8]: relatively good tumor killing effects

C[C@H]1CC[C@@]2(OC1)O[C@H]1C[C@H]3[C@@H]4CC[C@@H]5CC(NC(=O)CC(=O)N6CCCN(CCN(C)C)CC6)CC[C@]5(C)C4CC[C@]3(C)[C@H]1[C@@H]2C (some centres unmarked) [Embodiment 39]
tumor killing effect (in-vivo fluorescence intensity) [8]: relatively good tumor killing effects

C[C@H]1CC[C@@]2(OC1)O[C@H]1C[C@H]3[C@@H]4CC[C@@H]5CC(NC(=O)CC(=O)N6CCN(CCn7ccnc7)CC6)CC[C@]5(C)C4CC[C@]3(C)[C@H]1[C@@H]2C (some centres unmarked) [Embodiment 40]
tumor killing effect (in-vivo fluorescence intensity) [8]: relatively good tumor killing effects
